Assay results: patent US20200215065A1, “COMPOSITIONS AND METHOD FOR TREATING PULMONARY HYPERTENSION” (THE REGENTS OF THE UNIVERSITY OF COLORADO, a body corporate, priority 2017, published 2020)
Values after ≈ are worked out from the molar mass of the structure shown.

Columns and labels:
[1] = test system: hypoxic pulmonary vasoconstriction (HPV) response; experiment: Acute hypoxic rat model: pulmonary (PAP) and systemic (MAP) arterial pressure after treatment; type: in vivo
Method: Surgical procedures and hemodynamic measurements: Rats were anesthetized by intramuscular injection with ketamine/xylazine mixture (75 and 6 mg/kg, respectively). The ventral neck was shaved and a 2 cm incision was made in the right ventral neck where the jugular vein and right carotid artery were isolated via blunt dissection. A polyethylene (PE-50) catheter was introduced into the right carotid to measure systemic blood pressure. A polyvinyl (PV-1) catheter was inserted into the jugular vein and threaded through the right atrium, right ventricle, and into the lumen of the main pulmonary artery to obtain pulmonary arterial pressure. Fluid filled catheters were connected to pressure transducers and monitored continuously with the MP150 data acquisition system (BioPAC Systems; Goleta, Calif.). Blood pressures were recorded every two minutes for data analysis.
After completion of catheter placements and instrumentation for hemodynamic measurements, a 1 cm incision was made above the trachea, and the trachea was isolated by blunt dissection. A tracheotomy was performed approximately 4 mm above the carina and an endotracheal tube specially designed for rats was inserted such that the end of the tube was placed roughly 2 mm distal from the carina. This placement allowed the tip of a Microsprayer® attached to the FMJ-250 syringe (Penn-Century; Philadelphia, Pa.) to protrude approximately 1 mm from the trachea tube and deliver aerosolized emulsion to both right and left lung periphery (FIG. 1A).
Testing efficacy of intrapulmonary delivery of ambrisentan: following instrumentation and tracheotomy, anesthetized rats were placed in a specially designed Plexiglas box built to accommodate exteriorized catheters for completion of the study protocol (depicted graphically in FIG. 1B). Baseline PAP and mean systemic arterial pressure (MAP) were recorded. Next, rats were switched from breathing room air to a hypoxic gas mixture for 10 minutes. Acute hypoxia was induced in rats by exposure to 13% O2 (room air/nitrogen dilution; FIG. 1A). […] This first hypoxic challenge was followed by 20 minutes of room air breathing. […] During this period of room air breathing, rats were allowed to recover from hypoxia for 10 minutes prior to treatment administration via the Microsprayera Treatments were delivered as a 100-microliter bolus aerosol immediately following emulsification to avoid potential phase separation. Following treatment, rats remained breathing room air for an additional 10 minutes to allow drug absorption before being exposed to a second 10-minute hypoxic challenge. Following the second hypoxic challenge, rats returned to breathing room air and blood pressures were monitored for 15 minutes before animals were euthanized with intravenous injection of a euthanasia agent.
Intravenous infusion: As a reference to aid in understanding the response of intrapulmonary delivery of ambrisentan, an additional treatment group for intravenous (IV) infusion of ambrisentan was also investigated (5 mg/kg; 0.5 mL saline). […]
This study was conducted to test the use and efficacy of a water-in-fluorocarbon emulsion of this disclosure to encapsulate ambrisentan or sodium nitrite for intrapulmonary drug delivery. An acute hypoxic rat model was used, and pulmonary and systemic arterial pressure were recorded to determine efficacy of the drug delivery system for treatment of the acute hypoxic pulmonary vasoconstrictive response. […]

[2] = Solubility of ambrisentan in PBS; type: physicochemical; settings: pH 7.8, aqueous buffer, pH raised to 7.8
Excerpt: The aqueous solution of ambrisentan was then mixed with Krytox and PFOB and emulsified as previously described.

Row | SMILES | pulmonary arterial pressure compared to the empty emulsion ([1]; acute hypoxia, intrapulmonary emulsion, 0.1 mg/kg) | adverse effects (systemic arterial pressure during acute hypoxia) ([1]; intrapulmonary emulsion) | mean pulmonary arterial pressure when exposed to acute hypoxia ([1]; intrapulmonary emulsion, high dose 0.5 mg/kg) | MAP during the second hypoxic challenge ([1]; in vivo) | adverse effects (systemic arterial pressure during acute hypoxia) ([1]; in vivo) | solubility [2] [mg/mL]
1 | O=NO [sodium nitrite] | did not significantly change | no adverse effects were observed | significantly reduced |  |  | 
2 | COC(c1ccccc1)(c1ccccc1)[C@H](Oc1nc(C)cc(C)n1)C(=O)O [ambrisentan] |  |  |  | did not further reduce | no adverse effects were observed | ~100 (≈ 264 mM)
